Some test systems named below: T-47D breast; DU-145 prostate; SNB-75 CNS; HT29 colon; HCT-116 colon; HCT-15 colon; HL-60(TB) leukemia; OVCAR-3 ovarian; NCI/ADR-RES ovarian; MALME-3M melanoma; MOLT-4 leukemia; UO-31 renal; CCRF-CEM leukemia; 786-0 renal; NCI-H522 lung.
Assay in all cases: NCI-60 cell line screen, 48 h

Where “and” joins values, the source holds several entries; their conditions need not be identical. Equal entries are not always repeated.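 All cell lines were grown in 96-well plates and treated with compound for 48 hours. GI50 is the concentration that inhibits growth by half. TGI marks complete inhibition of growth.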

`CC(=O)CSc1c(-c2ccccc2)c(=O)n(-c2ccccc2)c(=S)n1-c1ccccc1`: the TGI with T-47D breast, in the experiment with DU-145 prostate, in the experiment with SNB-75 CNS, with HT29 colon, in the experiment on HCT-116 colon and in the experiment on HCT-15 colon was more than 100 µM throughout. Besides, the TGI with HL-60(TB) leukemia, in the experiment with OVCAR-3 ovarian, in the experiment on NCI/ADR-RES ovarian, in the experiment on MALME-3M melanoma, in the experiment on MOLT-4 leukemia and with UO-31 renal was more than 100 µM throughout. In addition, the TGI in the experiment on CCRF-CEM leukemia, with 786-0 renal and in the experiment on NCI-H522 lung was more than 100 µM throughout.
Take `Cc1ncc2c(=O)c3c(oc2n1)c1ccccc1n3Cc1ccccc1`: the TGI with T-47D breast, in the experiment with DU-145 prostate, in the experiment with SNB-75 CNS, with HT29 colon, in the experiment on HCT-116 colon and in the experiment with HCT-15 colon was more than 100 µM throughout. Moreover, the TGI in the experiment on HL-60(TB) leukemia, in the experiment on OVCAR-3 ovarian, in the experiment on NCI/ADR-RES ovarian, with MALME-3M melanoma, with MOLT-4 leukemia and in the experiment with UO-31 renal was more than 100 µM throughout. Besides, the TGI in the experiment with CCRF-CEM leukemia, in the experiment with 786-0 renal and in the experiment with NCI-H522 lung was more than 100 µM each time.
Take `COc1ccc2cc(C(=O)O)ccc2c1OC`: the TGI in the experiment on T-47D breast, in the experiment on DU-145 prostate, in the experiment with SNB-75 CNS, with HT29 colon, in the experiment with HCT-116 colon and in the experiment on HCT-15 colon was more than 100 µM in each case. Further, the TGI in the experiment on HL-60(TB) leukemia, in the experiment with OVCAR-3 ovarian, with NCI/ADR-RES ovarian, in the experiment with MALME-3M melanoma, with MOLT-4 leukemia and with UO-31 renal was more than 100 µM in each case. Besides, the TGI in the experiment with CCRF-CEM leukemia, with 786-0 renal and in the experiment with NCI-H522 lung was more than 100 µM throughout.
On to `CN(C)P(=O)(Oc1ccc(CC(NC(=O)OCc2ccccc2)C(=O)OCc2ccccc2)cc1)N(C)C` (stereo unspecified), for which the TGI with T-47D breast came out at 52.3 µM; in the experiment on DU-145 prostate, 29.2 µM; in the experiment with SNB-75 CNS, 33.3 µM; with HT29 colon it was 24.6 µM; with HCT-116 colon it was 31.3 µM; in the experiment on HCT-15 colon, 33 µM. For the same molecule, the TGI in the experiment with HL-60(TB) leukemia came out at 32.9 µM; in the experiment with OVCAR-3 ovarian it was 11.4 µM; in the experiment with NCI/ADR-RES ovarian, 36.2 µM; in the experiment on MALME-3M melanoma, 32.7 µM; in the experiment with MOLT-4 leukemia, 13.7 µM; in the experiment with UO-31 renal, 33.3 µM. Moreover, the TGI in the experiment with CCRF-CEM leukemia was determined as 7.56 µM; with 786-0 renal it was 17.5 µM; in the experiment on NCI-H522 lung it was 30.9 µM.
Take `COC(=O)C1OC(O[C@H]2CC[C@]3(C)[C@H]4CC=C5[C@@H]6CC(C)(C)CC[C@]6(C(=O)OC6OCC(O)C(O)C6OC6OC(C)C(OC7OCC(O)C(OC8OCC(O)C(O)C8O)C7O)C(OC7OCC(O)C(O)C7O)C6O)CC[C@@]5(C)[C@]4(C)CC[C@H]3C2(C)C)C(O)C(OC2OCC(O)C(O)C2O)C1O` (stereo partly specified): the TGI in the experiment with T-47D breast was 42.3 µM and 19.2 µM; in the experiment on DU-145 prostate it was > 70.6 µM and 37.2 µM; in the experiment with SNB-75 CNS it was 25.3 µM and 26.3 µM; with HT29 colon, 10.1 µM and 10.9 µM; with HCT-116 colon it was > 100 µM and 23.3 µM; in the experiment on HCT-15 colon, > 100 µM and 35.2 µM. Also, the TGI was 4.36 µM and 5.23 µM with HL-60(TB) leukemia; > 100 µM and 45.9 µM in the experiment on OVCAR-3 ovarian; > 100 µM and 21 µM in the experiment on NCI/ADR-RES ovarian; 19.4 µM and 18.3 µM with MALME-3M melanoma; 27.6 µM and 28.4 µM with MOLT-4 leukemia; 4.36 µM and 4.14 µM in the experiment on UO-31 renal. Further, the TGI with CCRF-CEM leukemia is > 100 µM and 30.2 µM; in the experiment on 786-0 renal it was > 100 µM and 16.6 µM; in the experiment on NCI-H522 lung, 5.32 µM and 5.78 µM. Besides, in the experiment on SNB-75 CNS, the GI50 is 5.19 µM and 11.7 µM.
For the molecule `CC(=O)Nc1cc2c3c(c1)CCCN3CCC2`, the TGI in the experiment with T-47D breast, with DU-145 prostate, in the experiment with SNB-75 CNS, in the experiment on HT29 colon, in the experiment on HCT-116 colon and in the experiment on HCT-15 colon was more than 100 µM throughout. Moreover, the TGI in the experiment with HL-60(TB) leukemia, in the experiment with OVCAR-3 ovarian, with NCI/ADR-RES ovarian, in the experiment on MALME-3M melanoma, in the experiment on MOLT-4 leukemia and in the experiment with UO-31 renal was more than 100 µM in each case. In addition, the TGI with CCRF-CEM leukemia, with 786-0 renal and in the experiment on NCI-H522 lung was more than 100 µM each time.

The values are drawn from PubChem BioAssay (NCI).
